Assay [1] relates to P. granulosum clinical isolates 2004-8, 2004-4 and 2002-1. The assay is described as follows: Spot/drop assay on clinical isolates of P. granulosum (2004-8, 2004-4 and 2002-1). The assay is classed as cell-based. The following applies: Clindamycin 1% gel ~10 μL; Erythromycin 20 μg/mL 5 μL, applied directly to bacterial lawn. As for the experimental part:
These bacterial strains show sensitivity to Clindamycin (1% gel, ˜10 μL) and Erythromycin (20 μg/mL, 5 μL) when the antibiotics are applied directly to a bacterial lawn of these strains, but are resistant to all the tested phage.

In another assay the test system is P. acnes PA1 biofilm. In words: Efficacy of phage mixtures on P. acnes biofilm. The class given is cell-based, Propionibacterium acnes. To be noted: for Remaining log bacteria after phage or antibiotic treatment of biofilm: phage 10^5 total PFU, Erythromycin 100 μg/mL. As for the experimental part:
To test our phage against P. acnes biofilms, the following experiment is performed on biofilms produced in the laboratory. An overnight culture of PA1 is diluted 1:1 with fresh BHIS and incubated for 4 hours at 37° C. after which the culture is once again diluted 1:1 this time with anacrobized BHIS supplemented with 1% glucose (final conc. 0.5%). Next, a 96-well plate (Thermo Fisher Scientific, Waltham, Massachusetts) is seeded with 200 μL of the diluted culture per well. The wells are sealed using 8-well strip caps (Thermo Fisher Scientific, Waltham, Massachusetts). This is incubated for 3 days to let the biofilm form. After 72 hours, 10 μL of either mixture 1 (PAP-12, PA1-9 and PA1-13), mixture 2 (PA7-1, PA1-9 and PA1-13), mixture 3 (PAP-12, PA1-9, PA1-13 and PS7-1) or 2 μL of Erythromycin is added to the relevant wells. The amount of phage added per mixture corresponds to 10^5 total PFU while for the antibiotic Erythromycin, a final concentration of 100 μg/mL (enough to inhibit PA1 growth when not in a biofilm) is used.
At 24 hrs or 48 hrs post-treatment depending on the wells, the medium is carefully removed from each well and the remaining biofilm is picked from each well into a separate Eppendorf tube using a sterile tip. At this point, 1 mL of fresh BHIS is added to the biofilm tubes, sonicated to remove the phage inside for 5 minutes (Elmasonic S 100, at 37 kHz) (Elma Schmidbauer GmbH (Singen, Germany), and centrifuged (4 min, 4000 rpm, 25° C.). The supernatant containing the phage is carefully removed to a clean tube for quantification and the process was repeated a total of 3 times to make sure all phage are removed.
To quantify the surviving bacteria, the pellet is re-suspended in 100 μL BHIS, 10-fold serially diluted in BHIS and plated on BHIS agar plates. The plates are incubated for 72 hrs at 37° C. anaerobically after which the colonies are counted and results rounded to the nearest log. In parallel, the phage quantities inside the biofilm are tested by taking the supernatant set aside earlier, and using the aforementioned plaque assay to assess the original quantities.

In the case of `CC[C@H]1OC(=O)[C@H](C)[C@@H](O[C@H]2C[C@@](C)(OC)[C@@H](O)[C@H](C)O2)[C@H](C)[C@@H](O[C@@H]2O[C@H](C)C[C@H](N(C)C)[C@H]2O)[C@](C)(O)C[C@@H](C)C(=O)[C@H](C)[C@@H](O)[C@]1(C)O` [Erythromycin], in assay [1], the “response of P. granulosum isolates to antibiotics” value is reported as “sensitivity”. Further, the “Remaining log bacteria after phage or antibiotic treatment of biofilm” value in the assay with P. acnes PA1 biofilm (24 hours post treatment) is given as “More than 9 Logs CFU”; in the assay on P. acnes PA1 biofilm (48 hours post treatment), 8 Logs CFU. In addition, in the assay on P. acnes PA1 biofilm (after 24 hours), the “decrease in bacterial counts in biofilm” value is recorded as “no visible decrease”. The “remaining bacteria per milliliter” value in the assay on P. acnes PA1 biofilm (after 48 hours) worked out at 8 logs.
